Measured values: patent publication US20130109854A1, “Novel Methods for Preparation of (+)-1-ethyl-4-[2-(4-morpholinyl)ethyl)-3,3-diphenyl-2-pyrrolidinone and Salts Thereof” (priority 2011, published 2013)

Columns and labels:
[1] = Stimulating ventilation or reversing respiratory depression (respiratory stimulant activity); format: in vivo; settings: compared with racemic doxapram
[2] = Acute side effects in animals; format: in vivo; settings: compared with racemic doxapram or a salt thereof
[3] = cited from earlier work

SMILES	activity in stimulating ventilation or reversing respiratory depression (desired beneficial pharmacological activity of racemic doxapram) [1]	adverse side effects compared to administration of racemic doxapram [2]	tidal volume and respiratory rate ([3]; administered intravenously)	effect on stimulating respiration (breathing) ([3]; animals, Ward & Franko, 1962)
CCN1C[C@H](CCN2CCOCC2)C(c2ccccc2)(c2ccccc2)C1=O [(+)-doxapram, (+)-4-(2-(1-ethyl-5-oxo-4,4-diphenylpyrrolidin-3-yl)ethyl)morpholine]	most or all the desired beneficial pharmacological activity associated with the racemic doxapram	significantly reduced adverse side effects	–	–
CCN1CC(CCN2CCOCC2)C(c2ccccc2)(c2ccccc2)C1=O (racemic) [doxapram]	–	–	increase	strong, dose-dependent effect
CCN1CC(CCN2CCOCC2)C(c2ccccc2)(c2ccccc2)C1=O (single isomer, unassigned; (-)) [(−)-doxapram]	essentially devoid of activity	–	–	–
